Measurements: ChEMBL document CHEMBL1135172, “High-throughput synthesis optimization of sulfonamide NPY Y5 antagonists” (Bioorg Med Chem Lett, 2002)

Biological target: T1, Neuropeptide Y receptor type 5 (Homo sapiens, UniProt Q15761)
T1 sequence (Q15761 whole entry): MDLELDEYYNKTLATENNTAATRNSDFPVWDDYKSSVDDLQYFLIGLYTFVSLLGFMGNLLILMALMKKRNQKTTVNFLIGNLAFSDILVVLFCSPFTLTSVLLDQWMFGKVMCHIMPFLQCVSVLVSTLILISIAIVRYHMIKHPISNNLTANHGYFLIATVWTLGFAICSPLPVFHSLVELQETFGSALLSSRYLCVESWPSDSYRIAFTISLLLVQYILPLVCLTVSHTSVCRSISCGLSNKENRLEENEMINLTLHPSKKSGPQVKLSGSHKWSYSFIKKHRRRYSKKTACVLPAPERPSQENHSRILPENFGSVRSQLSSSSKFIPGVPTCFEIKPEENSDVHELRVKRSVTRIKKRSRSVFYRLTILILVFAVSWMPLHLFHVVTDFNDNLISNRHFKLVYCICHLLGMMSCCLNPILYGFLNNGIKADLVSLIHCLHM
Assay: Displacement of [125I]PYY from human Neuropeptide Y receptor type 5 in COS-7 cell membranes

Row | Structure (SMILES) | Ki [nM]
1 | Cc1ccc(S(=O)(=O)NC(Cc2ccccc2)C(=O)NCCCCCCNS(=O)(=O)c2cccc3ccccc23)cc1 (centres undefined) | 426
2 | O=C(NCCCCCCNS(=O)(=O)c1cccc2ccccc12)Nc1cccc2ccccc12 | 231
3 | O=C(NC[C@H]1CC[C@H](CNS(=O)(=O)c2ccc3ccccc3c2)CC1)C1CCc2ccccc2C1 (some centres undefined) | > 100000
4 | O=C(NC[C@H]1CC[C@H](CNS(=O)(=O)c2ccccc2[N+](=O)[O-])CC1)Nc1cccc2ccccc12 | 103
5 | O=C(NCCCCCCNS(=O)(=O)c1ccccc1[N+](=O)[O-])Nc1cccc2ccccc12 | 151
6 | O=C(NCCCCCCNS(=O)(=O)c1ccccc1[N+](=O)[O-])c1ccc2ccccc2c1 | 412
7 | Cc1ccc(S(=O)(=O)NC(Cc2ccccc2)C(=O)NC[C@H]2CC[C@H](CNS(=O)(=O)c3ccc4ccccc4c3)CC2)cc1 (some centres undefined) | 199
8 | O=S(=O)(NC[C@H]1CC[C@H](CNCc2ccc3c(c2)OCCO3)CC1)c1cccc2ccccc12 | 12
9 | O=C(NCCCCNS(=O)(=O)c1ccccc1[N+](=O)[O-])Nc1cccc2ccccc12 | 724
10 | O=C(NC[C@H]1CC[C@H](CNS(=O)(=O)c2cccc3ccccc23)CC1)C1CCc2ccccc2C1 (some centres undefined) | 4120
11 | O=C(NCCCCCCNS(=O)(=O)c1ccccc1[N+](=O)[O-])C1CCc2ccccc2C1 (centres undefined) | 46
12 | O=C(NCCCCCCNS(=O)(=O)c1cccc2ccccc12)C1CCc2ccccc2C1 (centres undefined) | 724
13 | O=C(NC[C@H]1CC[C@H](CNS(=O)(=O)c2ccc3cccc([N+](=O)[O-])c3c2)CC1)C1CCc2ccccc2C1 (some centres undefined) | 724
14 | O=C(NC[C@H]1CC[C@H](CNS(=O)(=O)c2cccc3ccccc23)CC1)Nc1ccc(Cl)c(Cl)c1 | 95
